Results published in US10138255B2, “Piperazine derivatives as HIV protease inhibitors” (Merck Sharp & Dohme Corp., priority 2014, dated 2018).

tested on: HIV-1 (H9IIIB strain); assay: Cell-Based HIV Infection Assay Using a Reporter (MT4-GFP cells); conditions: Human immunodeficiency virus 1, inflection point (IP) of viral growth inhibition; MT4-GFP cells infected with HIV-1 H9IIIB; 50% normal human serum; mean of at least two independent experiments; read-out: Cell Based IP (50% NHS)
Experimental: Cell-Based HIV Infection Assay Using a Reporter (“Cell-Based”):
MT4-GFP cells contain a stably integrated HIV long terminal repeat promoter directing the transcription of green fluorescent protein (GFP). When HIV infects the cell, GFP is produced and the cell becomes green. MT4-GFP cells (250,000 cells/mL) were bulk-infected with HIV-1 (H9IIIB strain) at low multiplicity of infection (MOI) in RPM 1640 media, supplemented with 10% FBS for 24 h. Cells were then washed once in RPMI 1640 plus 10% FBS and resuspended in RPMI plus 50% normal human serum (NHS). Test compounds were serial-diluted in DMSO using an ECHO liquid dispenser. A control well included a combination of three HIV drugs (an inhibitor of HIV protease, integrase strand transfer and a non-nucleoside reverse transcriptase inhibitor; triple drug). The infected MT4-GFP cells were added to a 384-well poly-D-lysine coated black plate with clear bottom in which the diluted test compounds were placed. The cells were seeded in the plate at 8,000 cells per well and the final DMSO concentration was 0.4%. Infected cells were quantified at both 24 and 48 h post incubation using an Acumen eX3 plate reader. Viral reproductive ratio (R0) was determined using the number of infected cells at 48 h divided by the number of infected cells at 24 h. Percent viral growth inhibition was calculated by [1−(R−Rtripledrug)/(RDMSO−Rtripledrug)]*100. Compound potency inflection point (IP) was determined with use of a 4-parameter dose response curve analysis.
Data shown in the table reflects the mean of at least two independent experiments.

Row | Structure (SMILES) | EC50
1 | COC(=O)N[C@H](C(=O)Nc1cccc(F)c1CCC1CNC2CCCS(=O)(=O)N1C2)[C@@H](c1ccc(F)cc1)c1cc(F)cc(F)c1 (stereo partly drawn) [Example 35, methyl [(1S,2S)-2-(3,5-difluorophenyl)-1-({2-[2-(2,2-dioxido-2-thia-1,7-diazabicyclo[4.3.1]dec-9-yl)ethyl]-3-fluorophenyl}carbamoyl)-2-(4-fluorophenyl)ethyl]carbamate] | 3.8 nM
2 | N[C@H](C(=O)Nc1cccc(F)c1CCC1CNC2CCCS(=O)(=O)N1C2)[C@@H](c1ccc(Cl)cc1)C1CCOCC1 (stereo partly drawn) [Example 36, (βR)-4-chloro-N-{2-[2-(2,2-dioxido-2-thia-1,7-diazabicycio[4.3.1]dec-9-yl)ethyl]-3-fluorophenyl}-β-(tetrahydro-2H-pyran-4-yl)-L-phenylalaninamide] | 22 nM
3 | COC(=O)N[C@H](C(=O)Nc1cccc(F)c1CCC1CNC2CCCS(=O)(=O)N1C2)[C@@H](c1ccc(Cl)cc1)C1CCOCC1 (stereo partly drawn) [Example 37, methyl [(1S,2R)-2-(4-chlorophenyl)-1-({2-[2-(2,2-dioxido-2-thia-1,7-diazabicyclo[4.3.1]dec-9-yl)ethyl]-3-fluorophenyl}carbamoyl)-2-(tetrahydro-2H-pyran-4-yl)ethyl]carbamate] | 13 nM
4 | CC(C)[C@H](c1ccc(Cl)cc1)[C@H](N)C(=O)Nc1cccc(F)c1CCC1CNC2CCCS(=O)(=O)N1C2 (stereo partly drawn) [Example 38, (βR)-4-chloro-N-{2-[2-(2,2-dioxido-2-thia-1,7-diazabicyclo[4.3.1]dec-9-yl)ethyl]-3-fluorophenyl}-β-(1-methylethyl)-L-phenylalaninamide] | 28 nM
5 | N[C@H](C(=O)Nc1cccc(F)c1CC[C@H]1CNC2CCCS(=O)(=O)N1C2)C1(c2ccc(F)cc2)CCC(F)(F)CC1 (stereo partly drawn) [Example 39, (2S)-2-amino-2-[4,4-difluoro-1-(4-fluorophenyl)cyclohexyl]-N-(2-{2-[(9S)-2,2-dioxido-2-thia-1,7-diazabicyclo[4.3.1]dec-9-yl]ethyl}-3-fluorophenyl)ethanamide] | 200 nM
6 | N[C@H](C(=O)Nc1cccc(F)c1CC[C@H]1CNC2CCCS(=O)(=O)N1C2)C1(c2ccc(Cl)cc2)CCOCC1 (stereo partly drawn) [Example 40, (2S)-2-amino-2-[4-(4-chlorophenyl)tetrahydro-2H-pyran-4-yl]-N-(2-{2-[(9S)-2,2-dioxido-2-thia-1,7-diazabicyclo[4.3.1]dec-9-yl]ethyl}-3-fluorophenyl)ethanamide] | 99 nM
7 | COC(=O)N[C@H](C(=O)Nc1cccc(F)c1CC[C@H]1CNC2CCCS(=O)(=O)N1C2)C1(c2ccc(F)cc2)CCC(F)(F)CC1 (stereo partly drawn) [Example 41, methyl {(1S)-1-[4,4-difluoro-1-(4-fluorophenyl)cyclohexyl]-2-[(2-{2-[(9S)-2,2-dioxido-2-thia-1,7-diazabicyclo[4.3.1]dec-9-yl]ethyl}-3-fluorophenyl)amino]-2-oxoethyl}carbamate] | 43 nM
8 | COC(=O)N[C@H](C(=O)Nc1cccc(F)c1CC[C@H]1CNC2CCCS(=O)(=O)N1C2)C1(c2ccc(Cl)cc2)CCOCC1 (stereo partly drawn) [Example 42, methyl {(1S)-1-[4-(4-chlorophenyl)tetrahydro-2H-pyran-4-yl]-2-[(2-{2-[(9S)-2,2-dioxido-2-thia-1,7-diazabicyclo[4.3.1]dec-9-yl]ethyl}-3-fluorophenyl)amino]-2-oxoethyl}carbamate] | 31 nM
9 | COC(=O)N[C@H](C(=O)Nc1cccc(F)c1CC[C@H]1CNC2CCCS(=O)(=O)N1C2)[C@@H](c1ccc(Cl)cc1)[C@H]1CCOC(C)(C)C1 (stereo partly drawn) [Example 43, methyl {(1S,2R)-2-(4-chlorophenyl)-2-[(4S)-2,2-dimethyltetrahydro-2H-pyran-4-yl]-1-[(2-{2-[(9S)-2,2-dioxido-2-thia-1,7-diazabicyclo[4.3.1]dec-9-yl]ethyl}-3-fluorophenyl)carbamoyl]ethyl}carbamate] | 8.5 nM
10 | N[C@H](C(=O)Nc1cccc(F)c1CCC1CNC2CCCS(=O)(=O)N1C2)[C@H](c1cncc(F)c1)c1ccc(Cl)c(F)c1 (stereo partly drawn) [Example 44, (βS)-4-chloro-N-{2-[2-(2,2-dioxido-2-thia-1,7-diazabicyclo[4.3.1]dec-9-yl)ethyl]-3-fluorophenyl}-3-fluoro-β-(5-fluoropyridin-3-yl)-L-phenylalaninamide] | 4.5 nM
11 | COc1ccc([C@H](c2ccc(Cl)cc2)[C@H](N)C(=O)Nc2cccc(F)c2CCC2CNC3CCCS(=O)(=O)N2C3)cn1 (stereo partly drawn) [Example 45, (βS)-4-chloro-N-{2-[2-(2,2-dioxido-2-thia-1,7-diazabicyclo[4.3.1]dec-9-yl)ethyl]-3-fluorophenyl}-β-(6-methoxypyridin-3-yl)-L-phenylalaninamide] | 3.8 nM
12 | COC(=O)N[C@H](C(=O)Nc1cccc(F)c1CCC1CNC2CCCS(=O)(=O)N1C2)[C@H](c1cncc(F)c1)c1ccc(Cl)c(F)c1 (stereo partly drawn) [Example 46, methyl [(1S,2S)-2-(4-chloro-3-fluorophenyl)-1-({2-[2-(2,2-dioxido-2-thia-1,7-diazabicyclo[4.3.1]dec-9-yl)ethyl]-3-fluorophenyl}carbamoyl)-2-(5-fluoropyridin-3-yl)ethyl]carbamate] | 9.1 nM
13 | COC(=O)N[C@H](C(=O)Nc1cccc(F)c1CCC1CNC2CCCS(=O)(=O)N1C2)[C@@H](c1ccc(Cl)cc1)c1ccc(OC)nc1 (stereo partly drawn) [Example 47, methyl [(1S,2S)-2-(4-chlorophenyl)-1-({2-[2-(2,2-dioxido-2-thia-1,7-diazabicyclo[4.3.1]dec-9-yl)ethyl]-3-fluorophenyl}carbamoyl)-2-(6-methoxypyridin-3-yl)ethyl]carbamate] | 18 nM
14 | N[C@H](C(=O)Nc1cccc(F)c1CCC1CNC2CCCS(=O)(=O)N1C2)[C@@H](c1ccc(Cl)cc1)C1CC(F)(F)C1 (stereo partly drawn) [Example 48, (βR)-4-chloro-β-(3,3-difluorocyclobutyl)-N-{2-[2-(2,2-dioxido-2-thia-1,7-diazabicyclo[4.3.1]dec-9-yl)ethyl]-3-fluorophenyl}-L-phenylalaninamide] | 33 nM
15 | COC(=O)N[C@H](C(=O)N[C@H]1CCC[C@@H]1CC[C@H]1CN[C@@H]2CCCS(=O)(=O)N1C2)C(c1ccc(F)cc1)c1ccc(F)cc1 [Example 49, methyl [(1S)-1-[bis(4-fluorophenyl)methyl]-2-{[(1S,2R)-2-{2-[(6R,9S)-2,2-dioxido-2-thia-1,7-diazabicyclo[4.3.1]dec-9-yl]ethyl}cyclopentyl]amino}-2-oxoethyl]carbamate] | 18 nM
16 | COC(=O)N[C@H](C(=O)N[C@H]1CCC[C@@H]1CC[C@H]1CN[C@@H]2CCCS(=O)(=O)N1C2)[C@@H](c1ccc(F)cc1)C1CCOC(C)(C)C1 (stereo partly drawn) [Example 50, methyl [(1S,2R)-2-(2,2-dimethyltetrahydro-2H-pyran-4-yl)-1-{[(1S,2R)-2-{2-[(6R,9S)-2,2-dioxido-2-thia-1,7-diazabicyclo[4.3.1]dec-9-yl]ethyl}cyclopentyl]carbamoyl}-2-(4-fluorophenyl)ethyl]carbamate] | 28 nM
17 | N[C@H](C(=O)Nc1cccc(F)c1CCC1CNC2CCCS(=O)(=O)N1C2)[C@@H](c1ccc(F)cc1)c1cccc(C2CC2)c1 (stereo partly drawn) [Example 51, (βS)-3-cyclopropyl-N-{2-[2-(2,2-dioxido-2-thia-1,7-diazabicyclo[4.3.1]dec-9-yl)ethyl]-3-fluorophenyl}-β-(4-fluorophenyl)-L-phenylalaninamide] | 20 nM
18 | COC(=O)N[C@H](C(=O)Nc1cccc(F)c1CCC1CNC2CCCS(=O)(=O)N1C2)[C@@H](c1ccc(F)cc1)c1cccc(C2CC2)c1 (stereo partly drawn) [Example 52, methyl [(1S,2S)-2-(3-cyclopropylphenyl)-1-({2-[2-(2,2-dioxido-2-thia-1,7-diazabicyclo[4.3.1]dec-9-yl)ethyl]-3-fluorophenyl}carbamoyl)-2-(4-fluorophenyl)ethyl]carbamate] | 72 nM
19 | N[C@H](C(=O)Nc1cccc(F)c1CCC1CNC2CCCS(=O)(=O)N1C2)[C@@H](c1ccc(Cl)cc1)C1CCC(F)(F)CC1 (stereo partly drawn) [Example 53, (βR)-4-chloro-β-(4,4-difluorocyclohexyl)-N-{2-[2-(2,2-dioxido-2-thia-1,7-diazabicyclo[4.3.1]dec-9-yl)ethyl]-3-fluorophenyl}-L-phenylalaninamide] | 24 nM
20 | CC1(C)CC([C@H](c2ccc(F)cc2)[C@H](N)C(=O)N[C@H]2CCC[C@@H]2CC[C@H]2CN[C@@H]3CCCS(=O)(=O)N2C3)CCO1 (stereo partly drawn) [Example 54, (βR)-β-(2,2-dimethyltetrahydro-2H-pyran-4-yl)-N-[(1S,2R)-2-{2-[(6R,9S)-2,2-dioxido-2-thia-1,7-diazabicyclo[4.3.1]dec-9-yl]ethyl}cyclopentyl]-4-fluoro-L-phenylalaninamide] | 180 nM
21 | CC1(C)CC([C@H](c2ccc(Cl)cc2)[C@H](N)C(=O)N[C@H]2CCC[C@@H]2CC[C@H]2CN[C@@H]3CCCS(=O)(=O)N2C3)CCO1 (stereo partly drawn) [Example 55, (βR)-4-chloro-β-(2,2-dimethyltetrahydro-2H-pyran-4-yl)-N-[(1S,2R)-2-{2-[(6R,9S)-2,2-dioxido-2-thia-1,7-diazabicyclo[4.3.1]dec-9-yl]ethyl}cyclopentyl]-L-phenylalaninamide] | 80 nM
